Measurements taken from paper PMC11783601, “Analogue-Sensitive Inhibition of Histone Demethylases Uncovers Member-Specific Function in Ribosomal Protein Synthesis” (Journal of the American Chemical Society, 2025).

Test system: endogenous 2OG enzymes
Experiment: Effect of 6A/B on post-translational/post-synthetic modifications in HEK293T cells (Western blot, dot blot)
Assay type: cell-based, human
Description: To test the orthogonality of NOL toward wild type KDM4A, HEK293T cells, either nontransfected or transfected with KDM4A, were individually treated with DMSO, 400 μM 6A or 10 μM n-octyl IOX1, a nonspecific inhibitor of 2OG enzymes. […] To further probe for off-target effects of 6 on endogenous 2OG enzymes, HEK293T cells were cultured with DMSO or 400 μM 6A and examined for several postsynthetic modifications catalyzed by these dioxygenases. Key trimethylated lysine marks on extracted histone were analyzed by Western blot using corresponding antibodies (Figure S31). […] Similarly, no change in prolyl hydroxylation was detected when cellular extracts were subjected to the pan hydroxyproline antibody. […]
washed with TBST 3 times, 5 minutes each and incubated with methylene blue solution (Sigma 03978) for loading determination.
15. Determining the effect of 6A/B on post-translational modifications in HEK293T cells To determine the effects of 6B on 5hmC and 5mC levels, and correspondingly any proteins responsible for addition or removal of these motifs, HEK293-T cells (ATCC CRL-1573) were plated into 6-well tissue culture plates (Corning) in DMEM (Corning) supplemented with 10% FBS (Corning) and 1X Antibiotic/Antimycin (Penicillin/Streptomycin/Fungiozone) (Cytiva HyClone) in an incubator held at 37 °C with 5% CO2. At 75% confluency, cells were treated with 200µM 6B or equivalent volume of DMSO and left to incubate at 37 °C. 24 hours later, the media was aspirated, washed with 1X PBS (Corning) and uplifted via trypsinization (Gibco TrypLE™ Express Enzyme). Cells were centrifuged at 3000xg for 3 minutes, washed with 1X PBS and centrifuged again at 3000xg for 3 minutes.
To study the effect on genomic DNA, genomic DNA was extracted with Fisher GeneJET gemoic DNA Purification Kit (Fisher K0721) following manufactures protocol. 1000ng of gDNA, as measured via nanodrop, was then subject to Dot Blot experiment. Briefly, 20µL of 1000ng gDNA was added to 40µL of 2M NaOH-50mM EDTA solution for 3 minutes at room temperature. 140µL of 10mM Tris/1mM EDTA pH 8.0 (TE) buffer was added and heated at 95 °C for 10 minutes.
Aliquots were then transferred directly to ice and 200µL of 2M Ammonium Acetate was added and left on ice for 5 minutes. Meanwhile, PVDF Imoblinin P (Merck Millipore Ltd.) membrane was cut to size, activated with MeOH for 30 seconds and incubated in TE buffer for 5 minutes while shaking. The membrane was then placed on a 96-well Bio-Dot microfiltration apparatus (Bio-Rad), washed with 400µL of TE buffer and the gDNA solution was applied and vacuum filtered. 400µL of TE buffer was then used to wash the membrane post gDNA binding. The membrane was then dried at 37 °C for 30 minutes followed by blocking in 5% milk concentrate (Bio-Rad) TBST solution for 1 hour at room temperature. Primary antibody 5-mC (Abcam […]
was applied and left to rotate overnight at 4 °C. The following day, the blots were washed 3 times, 5 minutes each with TBST and secondary antibody of goat-anti Rabbit antibody (CST 7074) in 5% milk/TBST at 1-10000 dilution was added for 1 hour at room temperature while shaking. The […]
To study the effect of histone methyl motifs (H3K4me3, H3K9me3, H3K27me3, H3K36me3, H3K79me3) and hydroxyproline motif, cell pellets were lysed with RIPA buffer with EDTA (Fisher J61529) supplemented with 1X protease inhibitor tablet (Roche). […] The protein concentration was determined using Bradford assay kit (BioRad Laboratories) with BSA as a […]

With CCCCCCCCOC(=O)C(=O)NC(CC(C)C)C(=O)O [6A, L-Leu octyl-ester NOG] as the molecule, how does the “prolyl hydroxylation (pan hydroxyproline antibody)” value (HEK293T cells, 400 μM 6A) read?
The value was “no change”.

What about the “trimethylated K4, K9, K27, and K36 levels in histone H3” value (HEK293T cells, 400 μM 6A, Western blot) of the same molecule?
Its value is “No change”.

What about the “5mC, 5hmC, and m6A modifications on DNA and RNA” value (HEK293T cells, dot blot assays) of the same molecule?
The value was “no effect”.

What about the “5mC and 5hmC marks on genomic DNA” value (HEK293T cells, dot-blot assay) of the same molecule?
The value was “no inhibitory effect”.

And the “dimethyllysine, trimethyllysine and hydroxyproline marks on cellular proteins” value (HEK293T cellular extracts, pan antibodies, Western blot)?
Its value is “no inhibitory effect”.
